This is an account of results in ChEMBL document CHEMBL1137364, “Synthesis and structure-activity relationships of uracil nucleotide derivatives and analogues as agonists at human P2Y2, P2Y4, and P2Y6 receptors” (J Med Chem, 2006).

pEC50: −log10 of the molar value. Active and inactive are the calls of the source. The calls are words filed in the database; no cut-off is given here.

The target in assay [1] is T1, P2Y purinoceptor 2 (Homo sapiens, UniProt P41231). Briefly: Agonist activity at human P2Y2 receptor expressed in 1321N1 cells assessed as IP accumulation by SPA. It is filed as functional, cell-based.
T1 sequence (P41231 whole entry): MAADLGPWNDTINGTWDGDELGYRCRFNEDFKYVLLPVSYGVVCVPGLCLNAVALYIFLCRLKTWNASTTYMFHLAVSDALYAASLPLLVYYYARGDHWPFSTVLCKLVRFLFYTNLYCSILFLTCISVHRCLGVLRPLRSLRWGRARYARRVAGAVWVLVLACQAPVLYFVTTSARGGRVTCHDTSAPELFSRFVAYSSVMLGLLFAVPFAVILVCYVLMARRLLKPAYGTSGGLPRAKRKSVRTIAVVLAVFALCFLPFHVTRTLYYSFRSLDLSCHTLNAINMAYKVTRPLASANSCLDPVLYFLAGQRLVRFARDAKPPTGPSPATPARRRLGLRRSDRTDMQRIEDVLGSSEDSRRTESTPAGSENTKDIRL
For assay [2], the target named is T2, P2Y purinoceptor 6 (Homo sapiens, UniProt Q15077). Briefly: Agonist activity at human P2Y6 receptor expressed in 1321N1 cells assessed as IP accumulation by SPA. Format: functional, cell-based.
Target sequence in this assay (Q15077 whole entry): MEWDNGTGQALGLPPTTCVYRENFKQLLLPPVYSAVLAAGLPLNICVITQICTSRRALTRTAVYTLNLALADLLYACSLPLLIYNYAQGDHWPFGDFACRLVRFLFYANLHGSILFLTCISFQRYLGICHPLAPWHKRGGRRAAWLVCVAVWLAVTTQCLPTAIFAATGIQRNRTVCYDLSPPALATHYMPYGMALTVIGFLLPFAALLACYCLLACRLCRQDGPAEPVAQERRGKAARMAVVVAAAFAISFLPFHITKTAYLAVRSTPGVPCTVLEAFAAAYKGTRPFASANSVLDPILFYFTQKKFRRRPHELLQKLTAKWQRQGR
Assay [3] concerns the target P2Y purinoceptor 6 (Rattus norvegicus, UniProt Q63371). The experiment in a line: Agonist activity at rat P2Y6 receptor assessed as IP accumulation by SPA. It is filed as functional.
For assay [4], the species on record is Homo sapiens. Briefly: Selectivity for human P2Y6 over P2Y2.
For assay [5], the species on record is Homo sapiens. The experiment in a line: Selectivity for human P2Y6 over P2Y4.
The target of assay [6] is T3, P2Y purinoceptor 4 (Homo sapiens, UniProt P51582). Briefly: Agonist activity at human P2Y4 receptor expressed in 1321N1 cells assessed as IP accumulation by SPA. Format: functional, cell-based.
Target sequence in this assay (P51582 whole entry): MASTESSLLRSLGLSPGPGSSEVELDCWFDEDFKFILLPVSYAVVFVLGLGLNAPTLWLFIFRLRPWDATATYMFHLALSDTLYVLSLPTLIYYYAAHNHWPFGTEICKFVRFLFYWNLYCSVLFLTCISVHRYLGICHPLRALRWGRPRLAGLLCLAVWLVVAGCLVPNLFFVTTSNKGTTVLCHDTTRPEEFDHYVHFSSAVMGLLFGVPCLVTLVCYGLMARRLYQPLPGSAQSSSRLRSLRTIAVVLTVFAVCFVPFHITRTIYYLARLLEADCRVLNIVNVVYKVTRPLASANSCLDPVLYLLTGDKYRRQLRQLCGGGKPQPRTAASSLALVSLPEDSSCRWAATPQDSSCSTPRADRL
In assay [7] the target is T1, P2Y purinoceptor 2. Briefly: Agonist activity at human P2Y2 receptor expressed in 1321N1 cells assessed as IP accumulation by SPA at 1 uM. It is filed as functional, cell-based.
Assay [8] concerns the target T2, P2Y purinoceptor 6. Briefly: Agonist activity at human P2Y6 receptor expressed in 1321N1 cells assessed as IP accumulation by SPA at 1 uM. It is filed as functional, cell-based.
Target sequence in this assay (Q15077 whole entry): as the sequence (Q15077 whole entry) above
For assay [9], the target named is T2, P2Y purinoceptor 6. Briefly: Agonist activity at human P2Y6 receptor expressed in 1321N1 cells assessed as IP accumulation by SPA at 100 uM. It is filed as functional, cell-based.
Target sequence in this assay (Q15077 whole entry): as above
Assay [10] deals with T1, P2Y purinoceptor 2. Briefly: Antagonist activity at human P2Y2 receptor assessed as inhibition of UTP-induced IP accumulation at 100 uM. Format: functional.
Assay [11] has as its target T1, P2Y purinoceptor 2. Briefly: Agonist activity at human P2Y2 receptor expressed in 1321N1 cells assessed as IP accumulation by SPA at 100 uM. Format: functional, cell-based.
In assay [12] the target is T3, P2Y purinoceptor 4. The experiment in a line: Agonist activity at human P2Y4 receptor expressed in 1321N1 cells assessed as IP accumulation by SPA at 1 uM. Format: functional, cell-based.
Target sequence in this assay (P51582 whole entry): as the sequence (P51582 whole entry) above
The target of assay [13] is T3, P2Y purinoceptor 4. The experiment in a line: Agonist activity at human P2Y4 receptor expressed in 1321N1 cells assessed as IP accumulation by SPA at 100 uM. Format: functional, cell-based.
Target sequence in this assay (P51582 whole entry): as above
Assay [14] concerns the target T3, P2Y purinoceptor 4. The experiment in a line: Antagonist activity at human P2Y4 receptor assessed as inhibition of UTP-induced IP accumulation at 100 uM.
Target sequence in this assay (P51582 whole entry, looked up): as the sequence (P51582 whole entry) above
Assay [15] addresses T2, P2Y purinoceptor 6. The experiment in a line: Antagonist activity at human P2Y6 receptor assessed as inhibition of UDP-induced IP accumulation at 100 uM.
Target sequence in this assay (Q15077 whole entry, looked up): as the sequence (Q15077 whole entry) above

P2Y purinoceptor 6 (Rattus norvegicus, UniProt Q63371), sequence (Q63371 whole entry): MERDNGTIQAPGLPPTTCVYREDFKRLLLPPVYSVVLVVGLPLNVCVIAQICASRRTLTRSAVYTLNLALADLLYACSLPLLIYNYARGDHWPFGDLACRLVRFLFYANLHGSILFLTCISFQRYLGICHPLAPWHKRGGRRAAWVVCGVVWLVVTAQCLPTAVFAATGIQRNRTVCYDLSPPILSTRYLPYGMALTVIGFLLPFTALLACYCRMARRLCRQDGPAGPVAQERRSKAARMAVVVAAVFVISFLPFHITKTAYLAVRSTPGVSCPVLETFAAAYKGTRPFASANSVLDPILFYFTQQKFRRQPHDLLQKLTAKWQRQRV

`O=c1[nH]c(=O)n([C@@H]2O[C@H](COP(=O)(O)OP(=O)(O)O)[C@@H](O)[C@H]2O)cc1Br`: the pEC50 (usually the negative decadic logarithm of the EC50, by convention in mol/L) was 5.44 on P2Y purinoceptor 2 [1], 6.82 on P2Y purinoceptor 6 [2], 6.89 on P2Y purinoceptor 6 [3] and 5.14 on P2Y purinoceptor 4 [6]. Also, the values for the Ratio in the assay filed under Homo sapiens [4] and in the assay listed under Homo sapiens [5] were 24 and 48, respectively.
Turning to `Cc1cc(=O)n([C@@H]2O[C@H](COP(=O)(O)OP(=O)(O)OP(=O)(O)O)[C@@H](O)[C@H]2O)c(=O)[nH]1`, the Activity on P2Y purinoceptor 2 [7] stood at 18%; on P2Y purinoceptor 6 [8] it was 0%; at P2Y purinoceptor 6 [9], 72%; on P2Y purinoceptor 2 [11] it was 93%; at P2Y purinoceptor 4 [12], 8%; on P2Y purinoceptor 4 [13], 29%. Besides, the pEC50 was less than 6.00 at P2Y purinoceptor 2 [1], less than 6.00 at P2Y purinoceptor 6 [2] and less than 4.00 on P2Y purinoceptor 4 [6]. The result on P2Y purinoceptor 2 [10], at P2Y purinoceptor 4 [14] and at P2Y purinoceptor 6 [15] was inactive.
